The text below walks through data of ChEMBL document CHEMBL1909046, “DrugMatrix in vitro pharmacology data”.

The first test has as its target Aldo-keto reductase family 1 member B1 (Rattus norvegicus, UniProt P07943). In kind it is tissue-based, Lens of camera-type eye.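 Further: inhibition of aldose reductase enzyme activity, measured with DL-glyceraldehyde as the substrate; in other assays of this panel Not Active means under 50% inhibition at 10 µM.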
Settings: not given
Consider `O=C(O)c1cn(C2CC2)c2cc(N3CCNCC3)c(F)cc2c1=O` [CIPROFLOXACIN], for which the IC50 result is “Not Active”.
Same read-out and setting: with `C=C(C)[C@@H]1[C@H]2OC(=O)[C@@H]1[C@]1(O)C[C@H]3O[C@]34C(=O)O[C@H]2[C@]14C` [PICROTOXININ] the entry was “Not Active”; with `CCc1ccc(C(=O)C(C)CN2CCCCC2)cc1` (stereo not given) [EPERISONE], “Not Active”.
Same read-out and setting: with `C/C=C1\[C@H]2C=C(C)C[C@]1(N)c1ccc(=O)[nH]c1C2` [HUPERZINE A] the entry was “Not Active”.
Turning to `CC1COc2c(N3CCN(C)CC3)c(F)cc3c(=O)c(C(=O)O)cn1c23` (stereo not given) [OFLOXACIN], the IC50 result is recorded as “Not Active”.

The next test addresses T1, Receptor-type tyrosine-protein phosphatase C (Homo sapiens, UniProt P08575).
T1 sequence (P08575 whole entry): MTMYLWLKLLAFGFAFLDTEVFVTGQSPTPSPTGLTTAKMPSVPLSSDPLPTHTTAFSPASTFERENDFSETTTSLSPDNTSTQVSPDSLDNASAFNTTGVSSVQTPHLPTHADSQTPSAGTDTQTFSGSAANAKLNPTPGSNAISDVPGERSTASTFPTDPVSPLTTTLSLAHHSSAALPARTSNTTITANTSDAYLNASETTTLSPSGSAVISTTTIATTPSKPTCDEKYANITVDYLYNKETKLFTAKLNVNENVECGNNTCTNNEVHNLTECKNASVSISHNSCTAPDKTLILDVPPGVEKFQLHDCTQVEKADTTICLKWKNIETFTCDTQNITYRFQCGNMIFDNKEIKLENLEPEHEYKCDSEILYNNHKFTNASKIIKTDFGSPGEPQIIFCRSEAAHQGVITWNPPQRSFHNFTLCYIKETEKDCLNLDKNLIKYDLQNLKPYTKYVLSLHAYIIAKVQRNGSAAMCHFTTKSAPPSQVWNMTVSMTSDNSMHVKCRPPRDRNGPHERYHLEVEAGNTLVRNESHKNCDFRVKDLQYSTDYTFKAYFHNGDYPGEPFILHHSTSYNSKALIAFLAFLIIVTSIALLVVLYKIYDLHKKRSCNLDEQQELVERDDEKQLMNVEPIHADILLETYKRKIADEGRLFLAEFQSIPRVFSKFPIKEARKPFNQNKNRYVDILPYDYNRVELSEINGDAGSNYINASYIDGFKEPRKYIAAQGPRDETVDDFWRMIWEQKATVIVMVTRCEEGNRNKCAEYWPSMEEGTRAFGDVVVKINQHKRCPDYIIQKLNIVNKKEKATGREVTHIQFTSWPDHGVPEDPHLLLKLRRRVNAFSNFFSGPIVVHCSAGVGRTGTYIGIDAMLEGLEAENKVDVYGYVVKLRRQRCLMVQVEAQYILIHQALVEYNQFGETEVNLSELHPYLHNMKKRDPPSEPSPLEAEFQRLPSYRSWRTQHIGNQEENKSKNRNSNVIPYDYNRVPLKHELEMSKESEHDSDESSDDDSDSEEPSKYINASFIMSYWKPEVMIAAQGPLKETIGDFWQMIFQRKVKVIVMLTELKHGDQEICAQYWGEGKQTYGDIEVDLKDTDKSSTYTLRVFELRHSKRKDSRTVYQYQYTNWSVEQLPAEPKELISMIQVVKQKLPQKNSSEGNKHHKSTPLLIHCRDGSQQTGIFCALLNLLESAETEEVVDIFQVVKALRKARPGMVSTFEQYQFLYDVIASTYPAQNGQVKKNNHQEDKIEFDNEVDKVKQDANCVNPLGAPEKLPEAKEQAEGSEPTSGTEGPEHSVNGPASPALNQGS
Set-up: species or system Escherichia coli.
Settings: not given
Take `O=C(O)c1cn(C2CC2)c2cc(N3CCNCC3)c(F)cc2c1=O` [CIPROFLOXACIN]: the IC50 result is “Not Active”.
On the same count and under the same terms, with `C=C(C)[C@@H]1[C@H]2OC(=O)[C@@H]1[C@]1(O)C[C@H]3O[C@]34C(=O)O[C@H]2[C@]14C` [PICROTOXININ] the entry was “Not Active”.
For the compound `CCc1ccc(C(=O)C(C)CN2CCCCC2)cc1` (stereo not given) [EPERISONE], the IC50 entry is listed as “Not Active”.
The same measure, in the same setting: as for `C/C=C1\[C@H]2C=C(C)C[C@]1(N)c1ccc(=O)[nH]c1C2` [HUPERZINE A], the entry is “Not Active”; as for `CC1COc2c(N3CCN(C)CC3)c(F)cc3c(=O)c(C(=O)O)cn1c23` (stereo not given) [OFLOXACIN], “Not Active”.

The next test concerns the target T2, Muscarinic acetylcholine receptor M5 (Homo sapiens, UniProt P08912). Further: in other assays of this panel Not Active means under 50% inhibition at 10 µM.
T2 sequence (P08912 whole entry): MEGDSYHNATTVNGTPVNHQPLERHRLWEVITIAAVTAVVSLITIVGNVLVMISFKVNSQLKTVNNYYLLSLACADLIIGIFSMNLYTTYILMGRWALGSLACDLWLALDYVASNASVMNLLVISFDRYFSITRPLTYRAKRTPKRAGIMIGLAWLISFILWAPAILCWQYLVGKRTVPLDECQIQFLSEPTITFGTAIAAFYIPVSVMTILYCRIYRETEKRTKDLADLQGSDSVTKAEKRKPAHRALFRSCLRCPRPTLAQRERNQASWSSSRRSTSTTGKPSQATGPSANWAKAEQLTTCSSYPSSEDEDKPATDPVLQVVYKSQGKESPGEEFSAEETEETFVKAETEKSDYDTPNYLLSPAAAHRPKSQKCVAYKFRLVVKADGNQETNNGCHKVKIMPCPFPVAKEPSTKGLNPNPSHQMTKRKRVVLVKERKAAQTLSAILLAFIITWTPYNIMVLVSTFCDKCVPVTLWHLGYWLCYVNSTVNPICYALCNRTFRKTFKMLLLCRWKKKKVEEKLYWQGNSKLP
In kind it is cell membranes, CHO-K1, Membrane. The following applies: cho-k1.
As for `O=C(O)c1cn(C2CC2)c2cc(N3CCNCC3)c(F)cc2c1=O` [CIPROFLOXACIN], the IC50 result was “Not Active”.
The same measure, in the same setting: with `C=C(C)[C@@H]1[C@H]2OC(=O)[C@@H]1[C@]1(O)C[C@H]3O[C@]34C(=O)O[C@H]2[C@]14C` [PICROTOXININ] the entry was “Not Active”; with `CCc1ccc(C(=O)C(C)CN2CCCCC2)cc1` (stereo not given) [EPERISONE], “Not Active”; with `C/C=C1\[C@H]2C=C(C)C[C@]1(N)c1ccc(=O)[nH]c1C2` [HUPERZINE A], “Not Active”.
`CC1COc2c(N3CCN(C)CC3)c(F)cc3c(=O)c(C(=O)O)cn1c23` (stereo not given) [OFLOXACIN]: the IC50 result is reported as “Not Active”.

The target in a further test is T3, Alpha-2A adrenergic receptor (Homo sapiens, UniProt P08913). Further: in other assays of this panel Not Active means under 50% inhibition at 10 µM.
T3 sequence (P08913 whole entry): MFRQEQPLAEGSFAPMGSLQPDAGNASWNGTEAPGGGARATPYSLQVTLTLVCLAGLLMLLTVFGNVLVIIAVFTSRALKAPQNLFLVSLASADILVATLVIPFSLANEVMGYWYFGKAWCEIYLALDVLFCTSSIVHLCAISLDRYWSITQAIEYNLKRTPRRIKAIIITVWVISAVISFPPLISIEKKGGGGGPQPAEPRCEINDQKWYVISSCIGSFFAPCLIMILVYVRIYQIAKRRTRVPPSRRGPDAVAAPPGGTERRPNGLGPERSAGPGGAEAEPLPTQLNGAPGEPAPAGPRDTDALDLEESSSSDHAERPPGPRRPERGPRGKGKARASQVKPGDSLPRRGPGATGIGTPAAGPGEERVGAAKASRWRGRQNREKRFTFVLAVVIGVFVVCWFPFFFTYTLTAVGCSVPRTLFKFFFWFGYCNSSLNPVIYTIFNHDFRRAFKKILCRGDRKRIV
Type of test: cell membranes, Sf9, Membrane. The following applies: sf9.
In the case of `O=C(O)c1cn(C2CC2)c2cc(N3CCNCC3)c(F)cc2c1=O` [CIPROFLOXACIN], the IC50 entry is reported as “Not Active”.
Same read-out and setting: with `C=C(C)[C@@H]1[C@H]2OC(=O)[C@@H]1[C@]1(O)C[C@H]3O[C@]34C(=O)O[C@H]2[C@]14C` [PICROTOXININ] the entry was “Not Active”; with `CCc1ccc(C(=O)C(C)CN2CCCCC2)cc1` (stereo not given) [EPERISONE], “Not Active”; with `C/C=C1\[C@H]2C=C(C)C[C@]1(N)c1ccc(=O)[nH]c1C2` [HUPERZINE A], “Not Active”.
Still for that read-out and setting: as for `CC1COc2c(N3CCN(C)CC3)c(F)cc3c(=O)c(C(=O)O)cn1c23` (stereo not given) [OFLOXACIN], the entry is “Not Active”.

For the next test, the target named is Sodium-dependent dopamine transporter (Homo sapiens, UniProt Q01959). The test can be described thus: DRUGMATRIX: Dopamine Transporter radioligand binding (ligand: [125I] RTI-55). Type of test: cell membranes, CHO-K1, Membrane. To be noted: cho-k1; Not Active = under 50% inhibition at 10 µM.
Chain of Sodium-dependent dopamine transporter (Q01959 whole entry): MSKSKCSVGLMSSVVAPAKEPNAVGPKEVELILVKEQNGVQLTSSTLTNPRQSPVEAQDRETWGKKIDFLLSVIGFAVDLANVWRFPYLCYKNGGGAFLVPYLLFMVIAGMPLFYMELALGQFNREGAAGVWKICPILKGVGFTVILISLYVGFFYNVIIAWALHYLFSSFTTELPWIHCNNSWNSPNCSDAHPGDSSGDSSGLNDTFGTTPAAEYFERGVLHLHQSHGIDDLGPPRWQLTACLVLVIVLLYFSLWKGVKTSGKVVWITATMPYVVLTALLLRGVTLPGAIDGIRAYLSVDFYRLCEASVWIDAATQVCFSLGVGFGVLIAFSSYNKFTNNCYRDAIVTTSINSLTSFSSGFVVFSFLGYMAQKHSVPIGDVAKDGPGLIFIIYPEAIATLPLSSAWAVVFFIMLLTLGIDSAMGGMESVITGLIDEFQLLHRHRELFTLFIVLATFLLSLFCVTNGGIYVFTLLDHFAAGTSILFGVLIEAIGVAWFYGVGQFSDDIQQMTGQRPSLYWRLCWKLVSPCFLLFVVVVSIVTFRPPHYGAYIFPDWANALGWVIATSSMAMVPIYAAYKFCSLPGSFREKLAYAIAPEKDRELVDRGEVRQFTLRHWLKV
On to `O=C(O)c1cn(C2CC2)c2cc(N3CCNCC3)c(F)cc2c1=O` [CIPROFLOXACIN], for which the IC50 entry is listed as “Not Active”.
Same read-out and setting: as for `C=C(C)[C@@H]1[C@H]2OC(=O)[C@@H]1[C@]1(O)C[C@H]3O[C@]34C(=O)O[C@H]2[C@]14C` [PICROTOXININ], the entry is “Not Active”; as for `CCc1ccc(C(=O)C(C)CN2CCCCC2)cc1` (stereo not given) [EPERISONE], “Not Active”; as for `C/C=C1\[C@H]2C=C(C)C[C@]1(N)c1ccc(=O)[nH]c1C2` [HUPERZINE A], “Not Active”.
As for `CC1COc2c(N3CCN(C)CC3)c(F)cc3c(=O)c(C(=O)O)cn1c23` (stereo not given) [OFLOXACIN], the IC50 result is listed as “Not Active”.

Tested on in a further test: not listed separately
Description: DRUGMATRIX: Sodium/nucleoside co-transporter radioligand binding (ligand: nitrobenzylthioinosine). In kind it is cell membranes, Cavia porcellus, Dunkin-Hartley, Cerebral cortex, Membrane. The following applies: Not Active = under 50% inhibition at 10 µM.
On to `O=C(O)c1cn(C2CC2)c2cc(N3CCNCC3)c(F)cc2c1=O` [CIPROFLOXACIN], for which the IC50 result is “Not Active” and the Ki result is “Not Active”.
Regarding `C=C(C)[C@@H]1[C@H]2OC(=O)[C@@H]1[C@]1(O)C[C@H]3O[C@]34C(=O)O[C@H]2[C@]14C` [PICROTOXININ], the IC50 entry is recorded as “Not Active” and the Ki result is “Not Active”.
Consider `CCc1ccc(C(=O)C(C)CN2CCCCC2)cc1` (stereo not given) [EPERISONE], for which the IC50 entry was “Not Active” and the Ki result is recorded as “Not Active”.
Regarding `C/C=C1\[C@H]2C=C(C)C[C@]1(N)c1ccc(=O)[nH]c1C2` [HUPERZINE A], the IC50 result is “Not Active” and the Ki result is given as “Not Active”.
Regarding `CC1COc2c(N3CCN(C)CC3)c(F)cc3c(=O)c(C(=O)O)cn1c23` (stereo not given) [OFLOXACIN], the IC50 entry is “Not Active” and the Ki result is “Not Active”.

A further test deals with T4, Type-2 angiotensin II receptor (Homo sapiens, UniProt P50052).
T4 sequence (P50052 whole entry): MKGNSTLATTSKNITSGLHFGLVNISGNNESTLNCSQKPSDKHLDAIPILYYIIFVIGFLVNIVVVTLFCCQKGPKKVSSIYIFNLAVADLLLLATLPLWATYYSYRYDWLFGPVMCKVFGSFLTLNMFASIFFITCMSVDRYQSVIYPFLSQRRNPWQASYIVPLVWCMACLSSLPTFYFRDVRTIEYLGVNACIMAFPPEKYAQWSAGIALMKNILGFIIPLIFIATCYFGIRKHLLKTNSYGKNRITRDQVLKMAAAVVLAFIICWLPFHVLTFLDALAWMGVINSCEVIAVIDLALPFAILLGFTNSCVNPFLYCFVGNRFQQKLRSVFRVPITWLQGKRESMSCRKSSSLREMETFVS
In kind it is cell-based. The following applies: cho-k1.
On to `O=C(O)c1cn(C2CC2)c2cc(N3CCNCC3)c(F)cc2c1=O` [CIPROFLOXACIN], for which the IC50 result is reported as “Not Active”.
Still for that read-out and setting: with `C=C(C)[C@@H]1[C@H]2OC(=O)[C@@H]1[C@]1(O)C[C@H]3O[C@]34C(=O)O[C@H]2[C@]14C` [PICROTOXININ] the entry was “Not Active”; with `CCc1ccc(C(=O)C(C)CN2CCCCC2)cc1` (stereo not given) [EPERISONE], “Not Active”; with `C/C=C1\[C@H]2C=C(C)C[C@]1(N)c1ccc(=O)[nH]c1C2` [HUPERZINE A], “Not Active”.
In the case of `CC1COc2c(N3CCN(C)CC3)c(F)cc3c(=O)c(C(=O)O)cn1c23` (stereo not given) [OFLOXACIN], the IC50 entry is reported as “Not Active”.
